Consider eight compounds from US9434753B2, “Modified creatine compounds” (Gencia Corporation, priority 2011, dated 2016).

“Also recorded” adds a separate entry of the source.

The test system of one assay is Complex I. The assay is described as follows: Complex I (CI) activity microplate assay in treated fibroblasts. Format: cell-based. To be noted: 25 nM, within thirty minutes, compared to 10 μM unmodified creatine. The procedure: Complex I activity was determined using a CI microplate assay (MS 141) from MitoSciences (Eugene, Oreg.) according to the manufacturer's protocol. Fibroblasts were plated in T75 flasks. 24 hours after plating, the cells were treated with various concentrations of compound of example 1 in media for 30 min. The cells were then lysed, and the mitochondria were isolated using reagents provided in the CI assay kit according to the manufacturer's protocol. After determination of the protein concentrations, 20 μg of the purified mitochondria in a total volume of 200 μl was added in quadruplicate to the 96-well microplate and the CI enzyme was immunocaptured within the wells. CI activity was measured colorimetrically with a PHERAstar FS (BMG LABTECH Inc, Cary, N.C., USA) as a change in the absorbance following the oxidation of NADH to NAD+ and the simultaneous reduction of a dye which leads to increased absorbance at 450 nm over time (0-105 min). The average±SD of the quadruplicate values for each time point and treatment group were graphed, and the rate of CI activity was determined by the initial slope (i.e., values in the linear range from 20 to 50 min), expressed as change in optical density per minute.

The next assay deals with fibroblasts. Briefly: Oxygen consumption rate (OCR), XF24 extracellular flux analyzer, fibroblasts. The class given is cell-based. To be noted: 5 nM to 500 nM, within thirty minutes of treatment, compared to 10 μM unmodified creatine. As for the experimental part: In this assay, an XF24 extracellular flux analyzer (Seahorse Bioscience, North Billerica, Mass.) was used to measure mitochondrial oxygen consumption in intact cells. The XF24 analyzer creates a transient 7 μl chamber in specialized microplates that allows determination of oxygen and proton concentrations in real time through the measurement of oxygen sensitive dyes by the XF24 instrument. 24 hours prior to OCR measurement, fibroblasts were seeded into 20 wells of the 24 well tissue culture plate while 1 ml of XF Calibrant solution (Seahorse Bioscience, North Billerica, Mass.) was added to each well of a 24 well dual-analyte sensor cartridge (Seahorse Bioscience, North Billerica, Mass.). The sensor cartridge repositioned on the 24 well calibration plate, and the plate was incubated overnight at 37° C. without additional CO2. The day of the experiment, the injection ports on the sensor cartridge were loaded with compound 1 or creatine as indicated at 10× concentrations and placed into the XF24 Flux Analyzer for automated calibration. During the sensor calibration, cells in each of the tissue culture well were rinsed once in 1 mL of unbuffered media. 675 μL of unbuffered media was then added to each well, and the plate was incubated for an hour in the absence of additional CO2. Plates were subsequently placed into the calibrated seahorse XF24 flux analyzer for bioenergetic analysis. […]

For assay [1], the system named is HepG2 human liver carcinoma cells. The assay is described as follows: Oxygen consumption rate (OCR) in HepG2 cells. The class given is cell-based. The settings on record: control is 100. As for the experimental part: In this assay, an XF24 extracellular flux analyzer (Seahorse Bioscience, North Billerica, Mass.) was used to measure mitochondrial oxygen consumption in intact cells. The XF24 analyzer creates a transient 7 μl chamber in specialized microplates that allows determination of oxygen and proton concentrations in real time through the measurement of oxygen sensitive dyes by the XF24 instrument. 24 hours prior to OCR measurement, fibroblasts were seeded into 20 wells of the 24 well tissue culture plate while 1 ml of XF Calibrant solution (Seahorse Bioscience, North Billerica, Mass.) was added to each well of a 24 well dual-analyte sensor cartridge (Seahorse Bioscience, North Billerica, Mass.). The sensor cartridge repositioned on the 24 well calibration plate, and the plate was incubated overnight at 37° C. without additional CO2.
The day of the experiment, the injection ports on the sensor cartridge were loaded with compound 1 or creatine as indicated at 10× concentrations and placed into the XF24 Flux Analyzer for automated calibration. During the sensor calibration, cells in each of the tissue culture well were rinsed once in 1 mL of unbuffered media. 675 μL of unbuffered media was then added to each well, and the plate was incubated for an hour in the absence of additional CO2. Plates were subsequently placed into the calibrated seahorse XF24 flux analyzer for bioenergetic analysis. An equivalent number of cells per well are plated using a cell counter. Further normalization is achieved by taking baseline measurements of OCR on a well-by-well basis, and the increase observed is a comparison to the same well prior to treatment. Thus each well serves as its own control.
Using the same procedure, the oxygen consumption rate (OCR) for additional compounds were measure in HepG2 human liver carcinoma cells. Compounds were added in concentrations ranging from 0.25 nM to 200 nM.

Assay [2] has as its system recombinant CPK (Native Human Creatine Kinase). Briefly: Determination of CPK activity (ATP hydrolysis/consumption, luciferase). To be noted: 5 mM compound or creatine, 1 mM ATP, CPK 10 units/well, compound 1 compared with equimolar creatine. The class given is biochemical. As for the experimental part: Disclosed herein is an in vitro assay for determining the activity of recombinant CPK on the modified creatine compounds. Recombinant CPK is mixed with ATP and a modified creatine compound of interest. ATP hydrolysis, a measure of the rate of transfer of the gamma phosphate from ATP to the guanidinium groups of the creatine subunit, was measured using luciferase. The rate of ATP hydrolysis/consumption for the modified creatine compound is then compared to the rate of ATP hydrolysis/consumption for creatine. An in vitro assay was performed to determine the activity of recombinant CPK on the modified creatine compounds (CK, Native Human Creatine Kinase from Cell Sciences Catalog No: CSI14786B). Recombinant CPK (10 units/well) is mixed with 1 mM ATP and the compound of example 1 (compound 1) at varying concentrations (5 mM, 2.5 mM, and 1 mM) or creatine (5 mM). ATP hydrolysis; a measure of the rate of transfer of the gamma phosphate from ATP to the guanidinium groups of the creatine subunit was then measured for each sample using luciferase. Luciferase is then added (GLO kit from Promega) according to manufacturer instructions. As ATP is consumed, light is emitted. Every 2 minutes we collected the emitted light in our plate reader in lumens. The data is collected over 30 minutes to generate a slope. The slope is a measure of ATP consumption. […]

With `CN(CC(=O)NCCC[P+](c1ccccc1)(c1ccccc1)c1ccccc1)C(=N)N` [Example 1, N^2-[ammonio(imino)methyl]-N^2-methyl-N-[3-(triphenylphosphonio)propyl]glycinamide bis(trifluoroacetate)], the “Complex I activity (change in optical density per minute)” value with Complex I is reported as “significant increase in Complex I activity”. In addition, the oxygen consumption rate result with fibroblasts is on record as “significant increase in oxygen consumption rate”. Besides, the OCR in assay [1] (10 nM) worked out at 124%. The “rate of ATP hydrolysis/consumption” value in assay [2] (bis(trifluoroacetate)) was “higher rate of ATP hydrolysis/consumption relative to creatine; also recorded: significantly higher rate of ATP hydrolysis/consumption than creatine”.
`CN(CC(=O)N(C)CCC[P+](c1ccccc1)(c1ccccc1)c1ccccc1)C(=N)N` [Example 2, N^2-[ammonio(imino)methyl]-N,N^2-dimethyl-N-[3-(triphenylphosphonio)propyl]glycinamide bis(trifluoroacetate)]: the OCR in assay [1] (10 nM) is reported as 106%.
The same measure, in the same setting: in the case of `CN(CCC(=O)NCCCC[P+](c1ccccc1)(c1ccccc1)c1ccccc1)C(=N)N.O=C(O)C(F)(F)F.O=C([O-])C(F)(F)F` [Example 5, N^3-[ammonio(imino)methyl]-N^3-methyl-N-[4-(triphenylphosphonio)butyl]-O-alaninamide bis(trifluoroacetate)] it was 117.9%.
`CN(CCCC(=O)NCCCC[P+](c1ccccc1)(c1ccccc1)c1ccccc1)C(=N)N.O=C(O)C(F)(F)F.O=C([O-])C(F)(F)F` [Example 6, {4-[(4-{[ammonio(imino)methyl](methyl)amino}butanoyl)amino]butyl}(triphenyl)phosphonium bis(trifluoroacetate)] showed an OCR in assay [1] (0.25 nM) of 121%.
For `CN(CCC(C)(C)C(=O)NCCCC[P+](c1ccccc1)(c1ccccc1)c1ccccc1)C(=N)N.O=C(O)C(F)(F)F.O=C([O-])C(F)(F)F` [Example 7, {4-[(4-{[ammonio(imino)methyl](methyl)amino}-2,2-dimethylbutanoyl)amino]butyl}(triphenyl)phosphonium bis(trifluoroacetate)], the OCR in assay [1] (20 nM) was 112%.
`CN(CC1(C(=O)NCCC[P+](c2ccccc2)(c2ccccc2)c2ccccc2)CC1)C(=N)N.O=C(O)C(F)(F)F.O=C([O-])C(F)(F)F` [Example 8, [3-({[1-({[ammonio(imino)methyl](methyl)amino}methyl)cyclopropyl]carbonyl}amino)propyl](triphenyl)phosphonium bis(trifluoroacetate)]: in assay [1] (2.5 nM), the OCR was 115.7%.
Compound `CN(CC1(C(=O)NCCC[P+](c2ccccc2)(c2ccccc2)c2ccccc2)CCOCC1)C(=N)N.O=C(O)C(F)(F)F.O=C([O-])C(F)(F)F` [Example 9, [3-({[4-({[ammonio(imino)methyl](methyl)amino}methyl)tetrahydro-2H-pyran-4-yl]carbonyl}amino)propyl](triphenyl)phosphonium bis(trifluoroacetate)] returned an OCR in assay [1] (2.5 nM) of 121.9%.
With `CN(CC(=O)O)C(=N)N` [creatine, 2-(carbamimidoyl-methyl-amino) acetic acid], the “rate of ATP hydrolysis/consumption” value in assay [2] is given as “increase in ATP hydrolysis/consumption”.
